Reference: EP4596574A1, “GLP-1/GCG/GIP TRIPLE-RECEPTOR AGONIST AND USE THEREOF” (Sunshine Lake Pharma Co., Ltd., priority 2022, dated 2024)
Starred links: 1 amine or outer side, 2 acyl side, 3 side chain; linkers in the order of their positions; H or OH if unused. Non-standard residues stand in square brackets, D forms with d. Residues, ends and D or L forms follow the SMILES beside them. Groups on a side chain read outwards from the residue. *: point of attachment. C20 diacid = O=C(O)CCCCCCCCCCCCCCCCCCC(=O)*; C18 diacid = O=C(O)CCCCCCCCCCCCCCCCC(=O)*; αMePhe(2-F) = C[C@](N)(Cc1ccccc1F)C(=O)O; γGlu = O=C(O)[C@H](CCC(=O)[*:2])N[*:1]; AEEA = NCCOCCOCC(=O)O; Aib = CC(C)(N)C(=O)O

Tests used:
Type in all cases: cell-based
GCGR = molecular target: T1, GCGR (Homo sapiens, UniProt P47871); test: In vitro cell activity, cAMP production in HEK293 cells expressing GCGR; conditions: HEK293-GCGR cells, cAMP; read-out: GCGR (EC50)
T1 construct: expressed in transfected cells; host or cells: HEK293 (HEK293-GCGR)
T1 sequence (P47871 26-477, species assumed): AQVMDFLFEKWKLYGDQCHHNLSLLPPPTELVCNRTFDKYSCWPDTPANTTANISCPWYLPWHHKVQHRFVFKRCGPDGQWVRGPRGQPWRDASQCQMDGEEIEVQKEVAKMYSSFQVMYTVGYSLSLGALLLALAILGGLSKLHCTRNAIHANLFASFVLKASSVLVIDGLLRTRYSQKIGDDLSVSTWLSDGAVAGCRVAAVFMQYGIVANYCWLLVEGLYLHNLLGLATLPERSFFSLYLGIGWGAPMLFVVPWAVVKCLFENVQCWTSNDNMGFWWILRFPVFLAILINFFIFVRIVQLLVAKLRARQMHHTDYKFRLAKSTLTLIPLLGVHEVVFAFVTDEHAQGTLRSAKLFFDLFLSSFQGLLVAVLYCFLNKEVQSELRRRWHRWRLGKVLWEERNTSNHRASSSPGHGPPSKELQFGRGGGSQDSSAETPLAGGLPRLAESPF
How it was run: (§1)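 cAMP output read as 665/620 nm HTRF ratio after adding cAMP-d2 plus anti-cAMP cryptate and incubating 1 h at room temperature in the dark or overnight at 4 °C. Cells: HEK293 expressing human GLP-1R or GCGR, plated from a 4×10^5 cells/mL suspension. Four-parameter fit gives EC50.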

GLP-1R = molecular target: T2, GLP-1R (Homo sapiens, UniProt P43220); test: In vitro cell activity, cAMP production in HEK293 cells expressing GLP-1R; conditions: HEK293-GLP-1R cells, cAMP; read-out: GLP-1R (EC50)
T2 construct: expressed in transfected cells; host or cells: HEK293 (HEK293-GLP-1R)
T2 sequence (P43220 24-463, species assumed): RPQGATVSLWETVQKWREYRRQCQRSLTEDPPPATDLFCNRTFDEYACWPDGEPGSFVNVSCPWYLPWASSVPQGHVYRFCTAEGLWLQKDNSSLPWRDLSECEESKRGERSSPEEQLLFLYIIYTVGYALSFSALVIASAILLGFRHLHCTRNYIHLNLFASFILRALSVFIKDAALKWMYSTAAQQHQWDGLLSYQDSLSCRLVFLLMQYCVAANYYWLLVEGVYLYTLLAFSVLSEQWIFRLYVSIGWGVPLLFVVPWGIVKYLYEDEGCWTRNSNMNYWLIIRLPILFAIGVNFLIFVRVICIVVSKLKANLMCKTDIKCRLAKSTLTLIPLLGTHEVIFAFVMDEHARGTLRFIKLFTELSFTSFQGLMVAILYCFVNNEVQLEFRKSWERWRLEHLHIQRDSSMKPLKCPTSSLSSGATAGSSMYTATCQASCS
How it was run: as §1

GIPR = molecular target: T3, GIPR (Homo sapiens, UniProt P48546); test: In vitro cell activity, cAMP production in HEK293 cells expressing GIPR; conditions: HEK293-GIPR cells, cAMP; read-out: GIPR (EC50)
T3 construct: expressed in transfected cells; host or cells: HEK293 (HEK293-GIPR)
T3 sequence (P48546 22-466): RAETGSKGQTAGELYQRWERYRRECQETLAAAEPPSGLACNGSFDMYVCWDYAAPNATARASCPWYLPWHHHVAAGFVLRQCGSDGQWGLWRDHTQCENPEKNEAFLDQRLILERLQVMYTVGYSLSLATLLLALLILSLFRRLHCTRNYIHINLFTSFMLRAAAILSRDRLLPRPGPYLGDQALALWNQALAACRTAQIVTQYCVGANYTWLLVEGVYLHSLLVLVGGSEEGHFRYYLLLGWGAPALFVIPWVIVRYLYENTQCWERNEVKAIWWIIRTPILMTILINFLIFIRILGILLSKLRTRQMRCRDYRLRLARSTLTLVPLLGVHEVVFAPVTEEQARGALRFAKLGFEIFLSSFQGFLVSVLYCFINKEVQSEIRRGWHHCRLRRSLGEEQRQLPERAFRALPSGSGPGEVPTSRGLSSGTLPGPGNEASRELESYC
How it was run: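 HEK293 cells expressing human GIPR, thawed and diluted to 4×10^5 cells/mL, are stimulated with test compound. cAMP is measured by HTRF competition between cAMP-d2 and anti-cAMP cryptate. EC50 comes from a four-parameter nonlinear fit of signal ratio against concentration.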

Row | Compound | EC50 (GCGR) | EC50 (GLP-1R) | EC50 (GIPR)
1 | CC[C@H](C)[C@H](NC(=O)[C@H](CCCCN)NC(=O)[C@H](CC(=O)O)NC(=O)[C@H](CCCCNC(=O)COCCOCCNC(=O)CC[C@H](NC(=O)CCCCCCCCCCCCCCCCCCC(=O)O)C(=O)O)NC(=O)[C@H](CC(C)C)NC(=O)[C@@H](NC(=O)[C@H](CO)NC(=O)[C@H](Cc1ccc(O)cc1)NC(=O)[C@H](CC(=O)O)NC(=O)[C@H](CO)NC(=O)[C@@H](NC(=O)[C@](C)(Cc1ccccc1F)NC(=O)[C@@H](NC(=O)CNC(=O)[C@H](CCC(N)=O)NC(=O)C(C)(C)NC(=O)[C@@H](N)Cc1ccc(O)cc1)[C@@H](C)O)[C@@H](C)O)[C@@H](C)CC)C(=O)N[C@@H](C)C(=O)N[C@@H](CCC(N)=O)C(=O)NC(C)(C)C(=O)N[C@@H](C)C(=O)N[C@@H](Cc1ccccc1)C(=O)N[C@H](C(=O)N[C@@H](CCC(=O)O)C(=O)N[C@@H](Cc1ccc(O)cc1)C(=O)N[C@@H](CC(C)C)C(=O)N[C@@H](CC(C)C)C(=O)N[C@@H](C)C(=O)NCC(=O)NCC(=O)N1CCC[C@H]1C(=O)N[C@@H](CO)C(=O)N[C@@H](CO)C(=O)NCC(=O)N[C@@H](C)C(=O)N1CCC[C@H]1C(=O)N1CCC[C@H]1C(=O)N1CCC[C@H]1C(=O)N[C@@H](CO)C(N)=O)[C@@H](C)CC [HEC-PT138] (H-Y[Aib]QGT[αMePhe(2-F)]TSDYSILK([AEEA-γGlu-C20 diacid])DKIAQ[Aib]AFIEYLLAGGPSSGAPPPS-NH2) | 0.175 nM | 0.271 nM | 0.0649 nM
2 | CC[C@H](C)[C@H](NC(=O)[C@H](CCCCN)NC(=O)[C@H](CC(=O)O)NC(=O)[C@H](CCCCNC(=O)COCCOCCNC(=O)CC[C@H](NC(=O)CCCCCCCCCCCCCCCCC(=O)O)C(=O)O)NC(=O)[C@H](CC(C)C)NC(=O)[C@@H](NC(=O)[C@H](CO)NC(=O)[C@H](Cc1ccc(O)cc1)NC(=O)[C@H](CC(=O)O)NC(=O)[C@H](CO)NC(=O)[C@@H](NC(=O)[C@](C)(Cc1ccccc1F)NC(=O)[C@@H](NC(=O)CNC(=O)[C@H](CCC(N)=O)NC(=O)C(C)(C)NC(=O)[C@@H](N)Cc1ccc(O)cc1)[C@@H](C)O)[C@@H](C)O)[C@@H](C)CC)C(=O)N[C@@H](C)C(=O)N[C@@H](CCC(N)=O)C(=O)NC(C)(C)C(=O)N[C@@H](C)C(=O)N[C@@H](Cc1ccccc1)C(=O)N[C@H](C(=O)N[C@@H](CCC(=O)O)C(=O)N[C@@H](Cc1ccc(O)cc1)C(=O)N[C@@H](CC(C)C)C(=O)N[C@@H](CC(C)C)C(=O)N[C@@H](C)C(=O)NCC(=O)NCC(=O)N1CCC[C@H]1C(=O)N[C@@H](CO)C(=O)N[C@@H](CO)C(=O)NCC(=O)N[C@@H](C)C(=O)N1CCC[C@H]1C(=O)N1CCC[C@H]1C(=O)N1CCC[C@H]1C(=O)N[C@@H](CO)C(N)=O)[C@@H](C)CC [HEC-PT139] (H-Y[Aib]QGT[αMePhe(2-F)]TSDYSILK([AEEA-γGlu-C18 diacid])DKIAQ[Aib]AFIEYLLAGGPSSGAPPPS-NH2) | 0.0821 nM | 0.158 nM | 0.0359 nM
